Assay results: patent US12594267B2, “Capsid inhibitors for the treatment of HIV” (Gilead Sciences, Inc., priority 2018, dated 2026)
Like-named read-outs stand apart in the source and are kept apart here.

What was measured:
WT LAI = experiment: microbe, parasite or virus in culture; type: cell-based, HIV-1; conditions: Human immunodeficiency virus 1, MT2, read-out: WT LAI EC50
Method: The antiviral activity of the compound of Formula (a) was tested against a panel of known HIV-1 mutants resistant to HIV PIs (ATV and DRV), NRTIs (TFV and FTC), NNRTIs (RPV and EFV) or INSTIs (RAL, EVG and DTG) using a cytopathic antiviral assay in MT-2 cells.

[1] = PK after oral administration in liquid-filled capsules in dogs; type: in vivo, beagle dogs; conditions: for bioavailability: oral, calculated based on AUC0-72h vs average IV AUC0-72h
Method: A single dose of the compound of Formula (Ia), formulated as liquid-filled capsules (LFC) containing either 100% glycerol monocaprylocaprate or 20% caprylocaproyl polyoxyl-8 glycerides and 80% glycerol monocaprylocaprate was administered orally at 7.5 mg fixed dose to 6 male beagle dogs (Table 9). At 100 mg/mL of the compound of Formula (Ia), the AUCinf increased with increasing glycerol monocaprylocaprate content. For the formulation with 100% glycerol monocaprylocaprate, the AUCinf at 50 mg/mL was higher than that at 100 mg/mL.
A single dose of the compound of Formula (Ia), formulated as liquid-filled capsules (LFC) containing 100% glycerol monocaprylocaprate, was administered orally at 7.5 mg fixed dose to 6 beagle dogs (Table S) and the pharmacokinetic (PK) profile was determined. […] Plasma concentrations of the compound of Formula (Ia) were maintained above the target trough concentration of 20 nM for at least 72 hours (3 days).

HIV-1 clinical isolates = experiment: Antiviral activity against HIV-1 clinical isolates in PHA-stimulated human PBMCs; type: cell-based; conditions: 168 h, 7-day infection, RT activity readout, mean of triplicate
Method: The antiretroviral activity of the compound of Formula (Ia) was tested against a panel of 22 HIV-1 clinical isolates of HIV-1 and two HIV-2 isolates in freshly isolated, PHA-stimulated human peripheral blood mononuclear cells (PBMCs). The HIV-1 isolates included representative strains from subtypes A, B, C, D, E, F, G, N, O, AE, and AG. Following a 7-day infection, virus production was determined by measuring reverse transcriptase activity in cell-free culture supernatants.

[2] = dog, plasma, fasted, pentagastrin-pretreated male beagle dogs, oral LFC 7.5 mg fixed dose, 20% caprylocaproyl polyoxyl-8 glycerides and 80% glycerol monocaprylocaprate, 100 mg/mL, mean ± SD, n=6
[3] = male, beagle, dog, plasma, po, 7.5 mg, fasted, pentagastrin-pretreated male beagle dogs, oral LFC 7.5 mg fixed dose, 100% glycerol monocaprylocaprate, 50 mg/mL, mean ± SD, n=6
[4] = male, beagle, dog, plasma, po, 7.5 mg, fasted, pentagastrin-pretreated male beagle dogs, oral LFC 7.5 mg fixed dose, 100% glycerol monocaprylocaprate, 100 mg/mL, mean ± SD, n=6

## CC(C)(C#Cc1ccc(-c2ccc(Cl)c3c(NS(C)(=O)=O)nn(CC(F)(F)F)c23)c([C@H](Cc2cc(F)cc(F)c2)NC(=O)Cn2nc(C(F)(F)F)c3c2C(F)(F)[C@@H]2C[C@H]32)n1)S(C)(=O)=O [Formula (Ia), N—((S)-1-(3-(4-chloro-3-(methylsulfonamido)-1-(2,2,2-trifluoroethyl)-1H-indazol-7-yl)-6-(3-methyl-3-(methylsulfonyl)but-1-yn-1-yl)pyridin-2-yl)-2-(3,5-difluorophenyl)ethyl)-2-((3bS,4aR)-5,5-difluoro-3-(trifluoromethyl)-3b,4,4a,5-tetrahydro-1H-cyclopropa[3,4]cyclopenta[1,2-c]pyrazol-1-yl)acetamide]
WT LAI
  EC50: 0.14 ± 0.03 nM
[1]; beagle dogs, oral liquid-filled capsules, 100% glycerol monocaprylocaprate, 7.5 mg fixed dose
  Time plasma concentrations maintained above the target trough concentration of 20 nM: at least 72 hours
[1]; beagle, dog, plasma, po, 7.5 mg, beagle dogs, oral liquid-filled capsules, 100% glycerol monocaprylocaprate, 7.5 mg fixed dose, 50 mg/mL (Table S), mean ± SD, n=6
  Tmax: 11 ± 10.1 h
[1]; beagle, dog, plasma, po, 7.5 mg, beagle dogs, oral liquid-filled capsules, 100% glycerol monocaprylocaprate, 7.5 mg fixed dose, 50 mg/mL (Table S), mean ± SD, n=6, read-out: AUC0-72h
  AUC(0-t): 5.07 ± 4.65 µM·h
[1]; beagle, dog, plasma, po, 7.5 mg, beagle dogs, oral liquid-filled capsules, 100% glycerol monocaprylocaprate, 7.5 mg fixed dose, 50 mg/mL (Table S), mean ± SD, n=6, read-out: AUC0-14d
  AUC(0-t): 108 ± 16 µM·h
[1]; dog, plasma, beagle dogs, oral liquid-filled capsules, 100% glycerol monocaprylocaprate, 7.5 mg fixed dose, 50 mg/mL (Table S), mean ± SD, n=6, read-out: C72h
  concentration at 72 h: 20.1 ± 24.4 nM
[1]; [2]
  AUC(0-inf): 1.3 ± 0.634 µM·h
  Cmax: 53.2 ± 16.7 nM
  Tmax: 7.7 ± 8 h
[1]; dog, plasma, fasted, pentagastrin-pretreated male beagle dogs, oral LFC 7.5 mg fixed dose, 20% caprylocaproyl polyoxyl-8 glycerides and 80% glycerol monocaprylocaprate, 100 mg/mL, mean ± SD, n=6, read-out: AUC0-72h
  AUC(0-t): 1.18 ± 0.575 µM·h
[1]; male, beagle, dog, plasma, 7.5 mg, as above (20%/80% LFC, 100 mg/mL), mean ± SD, n=6
  bioavailability: 11 ± 4%
[1]; male, beagle, dog, plasma, 7.5 mg, as above (100% glycerol monocaprylocaprate LFC, 50 mg/mL), mean ± SD, n=6
  bioavailability: 22 ± 10%
[1]; male, beagle, dog, plasma, 7.5 mg, as above (100% glycerol monocaprylocaprate LFC, 100 mg/mL), mean ± SD, n=6
  bioavailability: 16 ± 9%
[1]; [3]
  AUC(0-inf): 2.33 ± 1.35 µM·h
  Cmax: 82.7 ± 32.1 nM
  Tmax: 4 h
[1]; male, beagle, dog, plasma, po, 7.5 mg, fasted, pentagastrin-pretreated male beagle dogs, oral LFC 7.5 mg fixed dose, 100% glycerol monocaprylocaprate, 50 mg/mL, mean ± SD, n=6, read-out: AUC0-72h
  AUC(0-t): 2.18 ± 1.24 µM·h
[1]; [4]
  AUC(0-inf): 1.87 ± 1.19 µM·h
  Cmax: 71.2 ± 25.8 nM
  Tmax: 5 ± 1.1 h
[1]; male, beagle, dog, plasma, po, 7.5 mg, fasted, pentagastrin-pretreated male beagle dogs, oral LFC 7.5 mg fixed dose, 100% glycerol monocaprylocaprate, 100 mg/mL, mean ± SD, n=6, read-out: AUC0-72h
  AUC(0-t): 1.67 ± 1.04 µM·h
HIV-1 clinical isolates; Human immunodeficiency virus 1, BAL, PBMC, read-out: EC50 in human PBMCs, HIV-1 subtype B isolate Ba-L
  EC50: 0.04 nM
HIV-1 clinical isolates; Human immunodeficiency virus 1, PBMC, read-out: EC50 in human PBMCs, HIV-1 CRF01_AE isolate 90TH_CM235
  EC50: 0.04 nM
HIV-1 clinical isolates; Human immunodeficiency virus 1, PBMC, read-out: EC50 in human PBMCs, HIV-1 CRF02_AG isolate 01CM0008BBY
  EC50: 0.05 nM
HIV-1 clinical isolates; Human immunodeficiency virus 1, PBMC, read-out: EC50 in human PBMCs, HIV-1 CRF02_AG isolate 91DJ263
  EC50: 0.04 nM
HIV-1 clinical isolates; Human immunodeficiency virus 1, PBMC, read-out: EC50 in human PBMCs, HIV-1 Group N isolate YBF30
  EC50: 0.02 nM
HIV-1 clinical isolates; Human immunodeficiency virus 1, PBMC, read-out: EC50 in human PBMCs, HIV-1 Group O isolate BCF01
  EC50: 0.04 nM
HIV-1 clinical isolates; Human immunodeficiency virus 1, PBMC, read-out: EC50 in human PBMCs, HIV-1 subtype A isolate 92UG031
  EC50: 0.04 nM
HIV-1 clinical isolates; Human immunodeficiency virus 1, PBMC, read-out: EC50 in human PBMCs, HIV-1 subtype A isolate 92UG037
  EC50: 0.07 nM
HIV-1 clinical isolates; Human immunodeficiency virus 1, PBMC, read-out: EC50 in human PBMCs, HIV-1 subtype B isolate 89BZ_167
  EC50: 0.08 nM
HIV-1 clinical isolates; Human immunodeficiency virus 1, PBMC, read-out: EC50 in human PBMCs, HIV-1 subtype B isolate 90US_873
  EC50: 0.04 nM
HIV-1 clinical isolates; Human immunodeficiency virus 1, PBMC, read-out: EC50 in human PBMCs, HIV-1 subtype B isolate 91US001
  EC50: 0.03 nM
HIV-1 clinical isolates; Human immunodeficiency virus 1, PBMC, read-out: EC50 in human PBMCs, HIV-1 subtype B isolate 91US004
  EC50: 0.04 nM
HIV-1 clinical isolates; Human immunodeficiency virus 1, PBMC, read-out: EC50 in human PBMCs, HIV-1 subtype B isolate 96TH_NP1538
  EC50: 0.05 nM
HIV-1 clinical isolates; Human immunodeficiency virus 1, PBMC, read-out: EC50 in human PBMCs, HIV-1 subtype B isolate JR-CSF
  EC50: 0.04 nM
